Results on two molecules are retold here after publication PMC4560900, “High-throughput screening against thioredoxin glutathione reductase identifies novel inhibitors with potential therapeutic value for schistosomiasis” (Infectious Diseases of Poverty, 2015).

SMILES strings stand for the structures.

One assay has as its system worms. Further details: method as in PMID 7016122. Particulars: previous studies; cited from earlier work.
Assay [1] concerns the target T1, Thioredoxin glutathione reductase from S. mansoni (SmTGR) (Schistosoma mansoni, UniProt Q962Y6).
T1 construct: made in house
T1 sequence (Q962Y6 1-598): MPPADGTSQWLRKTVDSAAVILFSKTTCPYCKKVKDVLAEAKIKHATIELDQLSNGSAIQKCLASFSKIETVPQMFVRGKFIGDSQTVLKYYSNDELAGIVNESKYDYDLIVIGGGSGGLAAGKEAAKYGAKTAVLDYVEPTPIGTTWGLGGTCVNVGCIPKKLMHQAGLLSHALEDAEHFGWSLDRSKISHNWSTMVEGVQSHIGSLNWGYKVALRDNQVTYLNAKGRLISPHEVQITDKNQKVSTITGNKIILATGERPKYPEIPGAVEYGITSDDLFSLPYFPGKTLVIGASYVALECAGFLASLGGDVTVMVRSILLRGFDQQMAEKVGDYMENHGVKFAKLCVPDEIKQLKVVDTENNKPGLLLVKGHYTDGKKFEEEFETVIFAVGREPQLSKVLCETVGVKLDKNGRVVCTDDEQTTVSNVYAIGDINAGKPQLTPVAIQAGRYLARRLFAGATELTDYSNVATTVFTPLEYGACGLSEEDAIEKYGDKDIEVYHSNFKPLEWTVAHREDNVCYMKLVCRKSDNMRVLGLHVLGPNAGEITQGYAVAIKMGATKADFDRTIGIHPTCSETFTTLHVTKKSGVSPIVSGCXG
As to the kind of experiment: Endpoint SmTGR fluorescence (ThioGlo) assay. It is filed as biochemical. The protocol:
SmTGR protein (1.58 μg/ml) was loaded into each well of black 384-well plates (PerkinElmer, Boston, MA, USA) containing 19 μl of assay buffer I (90 mM Tris-HCl, 10 mM EDTA, pH 7.5, 100 μM NADPH, and 0.48 mg/ml BSA), followed by an addition of 1 μl positive control or test compounds. The plates were sealed and incubated for 50 min at room temperature. […] Following a 1 h incubation, the product was reacted with 30 μl ThioGlo® 1 reagent for 20–30 min, and the fluorescence signal was monitored at an excitation wavelength of 380 nm and an emission wavelength of 515 nm on the EnVision plate reader (PerkinElmer).
An HTS effort was carried out against the compound library described above. […]
Data were analyzed using GraphPad Prism® software (GraphPad, San Diego, CA, USA). […]
Recombinant SmTGR was expressed and purified as previously described. An earlier assay of the coupled activities of SmTGR and peroxiredoxin-2 [13] was adapted to study the activity of SmTGR alone, using the following principle: SmTGR converts NADPH and GSSG to NADP^+ and reduced glutathione (GSH), and GSH production can be detected with ThioGlo®, a maleimide derivative of the naphthopyranone fluorophore which fluoresces upon reacting with free thiol groups such as those present in GSH. […] After ten additional minutes, samples were excited at […] and read for fluorescence at 515 nM.

The subject of a further assay is SmTGR. Further details: method as in PMID 17579510. The conditions noted are these: read-out: IC50 documented in the literature; cited from earlier work.

`O=C(C1CCCCC1)N1CC(=O)N2CCc3ccccc3C2C1` (stereo not shown) [PZQ, praziquantel]: the Worm-killing activity concentration in the assay on worms is 0.3 to 1 µM.

`O=C1C=CC(=O)c2c(O)ccc(O)c21` [naphthazarin, Naphthazarin]: the IC50 was 1.42 ± 0.08 µM in assay [1] and 10 µM in the assay with SmTGR. Moreover, the inhibition at 30 µM in assay [1] (read-out: Inhibition of SmTGR) worked out at 100%.

Broadly, the IC50 is the concentration that inhibits the measured activity by half. Usually inhibition stands for the percentage by which the read-out fell short of the control.
